# Key:
# Test in all cases: radiometric filter-binding kinase assay, Kinase HotSpot
# Settings in all cases: compound 0.5 µM; ATP 10 µM
# FLT3 (human) = FLT3 (human) (UniProt P36888)
# CDK3 CCNE1 (human) = CDK3 CCNE1 (human) (UniProt Q00526+P24864)
# CDK2 CCNA2 (human) = CDK2 CCNA2 (human) (UniProt P24941+P20248)
# STK33 (human) = STK33 (human) (UniProt Q9BYT3)
# DYRK1B (human) = DYRK1B (human) (UniProt Q9Y463)
# AURKC (human) = AURKC (human) (UniProt Q9UQB9)
# CDK6 CCND3 (human) = CDK6 CCND3 (human) (UniProt P30281+Q00534)
# CDK6 CCND1 (human) = CDK6 CCND1 (human) (UniProt Q00534+P24385)
# CDK5 CDK5R1 p25 (human) = CDK5 CDK5R1 p25 (human) (UniProt Q00535+Q15078)
# CDK4 CCND3 (human) = CDK4 CCND3 (human) (UniProt P30281+P11802)
# CDK7 CCNH MNAT1 (human) = CDK7 CCNH MNAT1 (human) (UniProt P50613+P51948+P51946)
# LTK (human) = LTK (human) (UniProt P29376)
# CDK5 CDK5R1 p35 (human) = CDK5 CDK5R1 p35 (human) (UniProt Q00535+Q15078)
# PRKCH (human) = PRKCH (human) (UniProt P24723)
# CDK9 CCNT1 (human) = CDK9 CCNT1 (human) (UniProt P50750+O60563)
# CDK2 CCNE1 (human) = CDK2 CCNE1 (human) (UniProt P24941+P24864)
# CDK4 CCND1 (human) = CDK4 CCND1 (human) (UniProt P24385+P11802)
# CDK9 CCNK (human) = CDK9 CCNK (human) (UniProt O75909+P50750)
# CDK1 CCNA2 (human) = CDK1 CCNA2 (human) (UniProt P06493+P20248)
# CDK1 CCNB1 (human) = CDK1 CCNB1 (human) (UniProt P06493+P14635)
# AURKB (human) = AURKB (human) (UniProt Q96GD4)
# MAP3K7 TAB1 (human) = MAP3K7 TAB1 (human) (UniProt O43318+Q15750)
# NEK7 (human) = NEK7 (human) (UniProt Q8TDX7)
# NEK6 (human) = NEK6 (human) (UniProt Q9HC98)
# [1] = tested on: ARAF (human), P10398 [Y301D/Y302D]
# Chain of PRKCH (human) (P24723 whole entry, looked up): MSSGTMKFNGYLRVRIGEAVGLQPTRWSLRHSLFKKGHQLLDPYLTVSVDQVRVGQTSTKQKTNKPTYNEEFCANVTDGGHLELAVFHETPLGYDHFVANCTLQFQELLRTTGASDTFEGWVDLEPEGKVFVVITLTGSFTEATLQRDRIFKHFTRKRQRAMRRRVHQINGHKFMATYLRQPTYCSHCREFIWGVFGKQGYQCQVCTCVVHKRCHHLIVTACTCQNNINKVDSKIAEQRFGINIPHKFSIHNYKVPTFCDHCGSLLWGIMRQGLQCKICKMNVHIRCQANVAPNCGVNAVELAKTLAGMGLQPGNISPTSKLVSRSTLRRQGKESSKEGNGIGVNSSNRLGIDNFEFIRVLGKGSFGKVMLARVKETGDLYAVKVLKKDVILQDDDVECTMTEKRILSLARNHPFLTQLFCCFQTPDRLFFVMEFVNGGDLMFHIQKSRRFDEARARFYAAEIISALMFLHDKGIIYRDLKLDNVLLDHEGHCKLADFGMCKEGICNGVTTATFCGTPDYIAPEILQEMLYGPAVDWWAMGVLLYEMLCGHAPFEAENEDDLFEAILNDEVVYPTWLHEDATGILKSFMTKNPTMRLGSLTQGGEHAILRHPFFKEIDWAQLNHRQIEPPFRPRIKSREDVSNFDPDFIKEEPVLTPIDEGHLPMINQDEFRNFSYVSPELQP
# Chain of CDK5 CDK5R1 p25 (human) (Q00535 whole entry, looked up): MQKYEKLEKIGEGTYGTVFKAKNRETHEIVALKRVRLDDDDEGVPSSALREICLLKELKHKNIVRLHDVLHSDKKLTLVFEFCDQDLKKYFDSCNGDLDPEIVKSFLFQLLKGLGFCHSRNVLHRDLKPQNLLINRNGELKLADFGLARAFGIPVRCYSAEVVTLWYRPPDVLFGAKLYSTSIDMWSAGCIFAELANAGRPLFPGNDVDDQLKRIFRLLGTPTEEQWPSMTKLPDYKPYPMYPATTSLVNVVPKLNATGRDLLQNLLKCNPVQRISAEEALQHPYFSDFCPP
# Chain of CDK5 CDK5R1 p25 (human) (Q15078 whole entry, looked up): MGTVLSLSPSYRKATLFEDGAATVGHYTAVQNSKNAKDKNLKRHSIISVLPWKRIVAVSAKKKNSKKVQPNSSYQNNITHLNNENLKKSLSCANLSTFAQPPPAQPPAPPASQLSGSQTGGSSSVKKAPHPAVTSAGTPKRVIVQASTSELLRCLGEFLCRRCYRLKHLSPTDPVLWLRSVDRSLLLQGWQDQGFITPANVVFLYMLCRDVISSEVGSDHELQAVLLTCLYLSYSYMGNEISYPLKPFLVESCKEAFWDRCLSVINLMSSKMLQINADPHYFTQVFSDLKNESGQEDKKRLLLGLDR
# Chain of LTK (human) (P29376 whole entry, looked up): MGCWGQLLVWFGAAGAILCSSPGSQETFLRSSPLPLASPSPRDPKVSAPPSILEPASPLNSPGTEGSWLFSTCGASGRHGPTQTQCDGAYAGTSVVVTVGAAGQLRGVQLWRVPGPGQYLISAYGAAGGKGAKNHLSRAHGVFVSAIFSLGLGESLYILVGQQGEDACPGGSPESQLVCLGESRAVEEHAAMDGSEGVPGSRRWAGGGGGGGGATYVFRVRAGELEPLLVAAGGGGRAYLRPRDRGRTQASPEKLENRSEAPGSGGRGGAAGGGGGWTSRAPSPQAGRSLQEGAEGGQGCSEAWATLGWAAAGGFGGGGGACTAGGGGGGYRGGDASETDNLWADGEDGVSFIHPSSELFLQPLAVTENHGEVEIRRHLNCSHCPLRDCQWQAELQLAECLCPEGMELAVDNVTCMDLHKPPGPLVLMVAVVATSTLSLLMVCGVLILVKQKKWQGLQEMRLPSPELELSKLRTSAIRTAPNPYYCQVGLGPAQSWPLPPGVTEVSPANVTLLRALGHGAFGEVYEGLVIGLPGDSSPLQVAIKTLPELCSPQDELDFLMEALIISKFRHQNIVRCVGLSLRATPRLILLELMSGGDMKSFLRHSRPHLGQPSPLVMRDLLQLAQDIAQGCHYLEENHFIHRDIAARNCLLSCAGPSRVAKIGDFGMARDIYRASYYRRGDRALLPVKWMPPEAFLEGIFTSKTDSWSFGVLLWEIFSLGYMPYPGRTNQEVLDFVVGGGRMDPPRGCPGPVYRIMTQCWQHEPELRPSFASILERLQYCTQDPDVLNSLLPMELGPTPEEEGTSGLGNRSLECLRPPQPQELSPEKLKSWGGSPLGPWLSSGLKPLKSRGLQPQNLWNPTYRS
# Chain of CDK1 CCNB1 (human) (P06493 whole entry, looked up): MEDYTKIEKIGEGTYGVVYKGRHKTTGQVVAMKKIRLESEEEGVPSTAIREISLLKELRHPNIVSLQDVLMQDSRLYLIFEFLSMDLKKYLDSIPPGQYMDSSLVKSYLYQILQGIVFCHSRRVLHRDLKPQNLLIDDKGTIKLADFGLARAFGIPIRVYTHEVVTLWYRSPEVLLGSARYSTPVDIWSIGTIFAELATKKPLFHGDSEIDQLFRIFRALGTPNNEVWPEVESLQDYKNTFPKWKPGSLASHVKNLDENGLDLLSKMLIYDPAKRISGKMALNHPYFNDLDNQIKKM
# Chain of CDK1 CCNB1 (human) (P14635 whole entry, looked up): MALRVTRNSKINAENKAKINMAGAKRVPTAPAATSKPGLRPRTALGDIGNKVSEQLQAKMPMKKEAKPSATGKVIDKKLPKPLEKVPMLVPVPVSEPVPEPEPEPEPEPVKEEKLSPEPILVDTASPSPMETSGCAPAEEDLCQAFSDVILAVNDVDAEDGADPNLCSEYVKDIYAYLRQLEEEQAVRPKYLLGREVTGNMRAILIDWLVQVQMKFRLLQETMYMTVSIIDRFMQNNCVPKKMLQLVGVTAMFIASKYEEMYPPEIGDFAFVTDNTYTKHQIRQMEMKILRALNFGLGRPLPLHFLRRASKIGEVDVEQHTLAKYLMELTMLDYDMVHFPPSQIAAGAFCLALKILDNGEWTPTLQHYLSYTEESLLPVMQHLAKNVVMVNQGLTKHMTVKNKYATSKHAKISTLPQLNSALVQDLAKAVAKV
# Chain of CDK1 CCNA2 (human) (P06493 whole entry, looked up): as the sequence (P06493 whole entry, looked up) above
# Chain of CDK1 CCNA2 (human) (P20248 whole entry, looked up): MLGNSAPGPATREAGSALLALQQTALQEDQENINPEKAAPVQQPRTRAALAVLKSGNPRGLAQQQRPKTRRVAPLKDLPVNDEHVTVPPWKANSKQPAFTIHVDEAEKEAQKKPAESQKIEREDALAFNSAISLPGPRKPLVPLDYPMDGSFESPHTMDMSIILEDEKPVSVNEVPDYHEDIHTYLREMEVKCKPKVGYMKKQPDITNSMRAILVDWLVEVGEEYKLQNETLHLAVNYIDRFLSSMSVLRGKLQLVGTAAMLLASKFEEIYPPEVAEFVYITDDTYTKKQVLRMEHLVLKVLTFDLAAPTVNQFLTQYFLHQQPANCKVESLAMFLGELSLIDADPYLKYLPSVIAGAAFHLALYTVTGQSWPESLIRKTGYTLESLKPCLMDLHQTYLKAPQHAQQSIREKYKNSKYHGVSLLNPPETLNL
# Chain of STK33 (human) (Q9BYT3 whole entry, looked up): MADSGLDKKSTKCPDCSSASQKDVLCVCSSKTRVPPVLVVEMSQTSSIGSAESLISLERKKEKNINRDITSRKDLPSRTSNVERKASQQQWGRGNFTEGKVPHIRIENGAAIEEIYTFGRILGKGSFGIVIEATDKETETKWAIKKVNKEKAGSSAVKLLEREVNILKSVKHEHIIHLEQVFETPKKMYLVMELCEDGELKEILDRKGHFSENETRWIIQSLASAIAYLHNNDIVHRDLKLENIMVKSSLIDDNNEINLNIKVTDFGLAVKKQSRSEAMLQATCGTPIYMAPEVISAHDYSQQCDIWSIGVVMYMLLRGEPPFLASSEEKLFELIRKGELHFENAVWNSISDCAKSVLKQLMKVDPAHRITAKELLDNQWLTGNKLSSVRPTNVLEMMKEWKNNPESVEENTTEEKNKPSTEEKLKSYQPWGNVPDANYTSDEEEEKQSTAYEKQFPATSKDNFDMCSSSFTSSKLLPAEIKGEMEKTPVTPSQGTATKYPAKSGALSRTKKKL
# Chain of CDK2 CCNA2 (human) (P20248 whole entry, looked up, other chains not shown): as the sequence (P20248 whole entry, looked up) above
# Chain of CDK6 CCND1 (human) (P24385 whole entry, looked up): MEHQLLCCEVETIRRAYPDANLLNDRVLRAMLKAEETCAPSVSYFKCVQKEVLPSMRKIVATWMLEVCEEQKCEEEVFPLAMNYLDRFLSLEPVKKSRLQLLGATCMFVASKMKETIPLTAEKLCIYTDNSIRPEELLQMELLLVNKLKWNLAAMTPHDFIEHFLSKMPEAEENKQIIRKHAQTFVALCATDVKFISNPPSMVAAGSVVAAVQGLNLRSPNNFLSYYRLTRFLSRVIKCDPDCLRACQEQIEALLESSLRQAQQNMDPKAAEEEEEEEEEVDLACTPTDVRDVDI
# Chain of CDK6 CCND1 (human) (Q00534 whole entry, looked up): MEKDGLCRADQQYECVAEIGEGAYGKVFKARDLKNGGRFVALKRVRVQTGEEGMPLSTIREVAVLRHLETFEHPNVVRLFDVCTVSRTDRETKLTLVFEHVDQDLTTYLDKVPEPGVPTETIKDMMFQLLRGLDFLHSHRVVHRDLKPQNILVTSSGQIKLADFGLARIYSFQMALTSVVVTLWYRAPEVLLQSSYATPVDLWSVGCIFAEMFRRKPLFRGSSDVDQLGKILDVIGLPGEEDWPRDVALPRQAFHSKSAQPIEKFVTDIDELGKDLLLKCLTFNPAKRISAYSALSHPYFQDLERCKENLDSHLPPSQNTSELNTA
SMILES,residual activity (CDK3 CCNE1 (human)) [%],residual activity (CDK2 CCNA2 (human)) [%],residual activity (STK33 (human)) [%],residual activity (DYRK1B (human)) [%],residual activity (CDK6 CCND3 (human)) [%],residual activity (CDK6 CCND1 (human)) [%],residual activity (CDK5 CDK5R1 p25 (human)) [%],residual activity (CDK4 CCND3 (human)) [%],residual activity (CDK7 CCNH MNAT1 (human)) [%],residual activity (LTK (human)) [%],residual activity (CDK5 CDK5R1 p35 (human)) [%],residual activity (PRKCH (human)) [%],residual activity (CDK9 CCNT1 (human)) [%],residual activity (CDK2 CCNE1 (human)) [%],residual activity (CDK4 CCND1 (human)) [%],residual activity (CDK9 CCNK (human)) [%],residual activity (CDK1 CCNA2 (human)) [%],residual activity (CDK1 CCNB1 (human)) [%],residual activity (MAP3K7 TAB1 (human)) [%],other results
Cc1cc(Nc2cc(N3CCN(C)CC3)nc(Sc3ccc(NC(=O)C4CC4)cc3)n2)[nH]n1,95.3,87.8,90.1,98.8,121,95.2,93.8,99.2,101,84.2,100,111,93.1,94.4,97.4,102,99.1,102,90.7,residual activity (FLT3 (human)): 6.67%; residual activity (AURKC (human)): 40.4%; residual activity (AURKB (human)): 4.89%
COC(=O)[C@]1(O)C[C@@H]2O[C@@]1(C)n1c3ccccc3c3c4c(c5c6ccccc6n2c5c31)C(=O)NC4,–,–,12.5,3.88,–,–,–,–,–,9.78,–,20.5,–,–,–,–,–,–,–,–
NC(=O)c1ccc(-c2nc(-c3ccccn3)c(-c3ccc4c(c3)OCCO4)[nH]2)cc1,99.4,95,98.3,100,104,106,91,94.1,97.6,93.5,98,83.3,96.8,93.5,84,97.1,97.1,83.9,104,–
CCOc1nc(NC(=O)Cc2cc(OC)ccc2OC)cc(N)c1C#N,97.7,104,97.7,99.2,98.6,95.2,96.8,95.2,103,97.3,105,94.3,100,88.9,97.6,89.2,92.2,108,96.6,–
O=C1Nc2ccc3ncsc3c2/C1=C/c1c[nH]cn1,–,–,35.7,11.3,–,–,–,–,–,83,–,41.2,–,–,–,–,–,–,–,residual activity (NEK7 (human)): 79.6%; residual activity (NEK6 (human)): 93.2%
O=S(=O)(NCCNC/C=C/c1ccc(Br)cc1)c1cccc2cnccc12,–,–,–,–,–,–,–,–,–,–,–,–,–,–,–,–,–,–,–,residual activity [1]: 95.8%
Cc1ccc(NC2=CC(=O)c3sc(C)nc3C2=O)cc1,–,–,–,–,–,–,–,–,–,–,–,–,–,–,–,–,–,–,–,residual activity [1]: 127%
